Reference: patent US9512120B2, “Microbicidally active imidazopyridine derivatives” (Syngenta Participations AG, priority 2013, dated 2016)

Key:
[1] = tested on: Puccinia recondita f. sp. Tritici; test: Puccinia recondita f. sp. tritici / wheat / leaf disc preventative (brown rust); assay type: in vivo; settings: foliar, wheat leaf segments cv Kanzler, inoculated 1 day after application, assessed 7-9 days after application, read-out: control of Puccinia recondita f. sp. Tritici (percent disease control compared to untreated)
Method in brief: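 Preventative test: percent disease control relative to untreated leaf segments was assessed 7-9 days post-application. Wheat (cv Kanzler) leaf discs were treated at 200 ppm and spore-inoculated 1 day afterwards. Discs were held at 19° C and 75% relative humidity under a 12/12 h light cycle.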

[2] = tested on: Phaeosphaeria nodorum (Septoria nodorum); test: Phaeosphaeria nodorum (Septoria nodorum) / wheat / leaf disc preventative (glume blotch); assay type: in vivo; settings: Parastagonospora nodorum, foliar, wheat leaf segments cv Kanzler, inoculated 2 days after application, assessed 5-7 days after application, read-out: control of Phaeosphaeria nodorum (percent disease control compared to untreated)
Method in brief: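 Wheat leaf segments (cv Kanzler) on agar sprayed with compound at 200 ppm, inoculated with spores 2 days later. Incubated at 20° C., 75% relative humidity, 12/12 h light/dark; percent disease control versus untreated scored 5-7 days after application.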

Pyrenophora teres = Pyrenophora teres / barley / leaf disc preventative (net blotch); assay type: in vivo; settings: foliar, barley leaf segments cv Hasso, inoculated two days after application, assessed 5-7 days after application, read-out: control of Pyrenophora teres (disease control compared to untreated)
Method in brief: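 Preventative leaf-disc test: 200 ppm spray, then spore inoculation after two days on barley cv Hasso segments. Incubation 20 °C, 65% relative humidity, 12 h light/12 h dark; efficacy rated against untreated checks at 5-7 days post-application.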

[3] = tested on: Botryotinia fuckeliana (Botrytis cinerea); test: Botryotinia fuckeliana (Botrytis cinerea) / liquid culture (gray mould); assay type: cell-based; settings: Vogels broth, 24° C., 3-4 days after application, read-out: control of Botryotinia fuckeliana (inhibition of growth, photometric)
Method in brief: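 Test compound was applied at 200 ppm in DMSO, then Vogels nutrient broth containing cryo-stored B. cinerea conidia was added. Photometric growth-inhibition reading followed after 3-4 days at 24 °C.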

[4] = tested on: Glomerella lagenarium (Colletotrichum lagenarium); test: Glomerella lagenarium (Colletotrichum lagenarium) / liquid culture (anthracnose); assay type: cell-based; settings: Colletotrichum orbiculare, PDB, 24° C., 3-4 days after application, read-out: control of Glomerella lagenarium (inhibition of growth, photometric)
Method in brief: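 Test compound, delivered in DMSO at an application rate of 200 ppm, was combined with spore-containing PDB. Photometric growth-inhibition measurement followed 3-4 days of incubation at 24° C.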

[5] = tested on: Mycosphaerella arachidis (Cercospora arachidicola); test: Mycosphaerella arachidis (Cercospora arachidicola) / liquid culture (early leaf spot); assay type: cell-based; settings: PDB, 24° C., 4-5 days after application, read-out: control of Mycosphaerella arachidis (inhibition of growth, photometric)
Method in brief: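 Conidia suspended in potato dextrose broth and added to test compound from DMSO solution at 200 ppm. Incubated at 24 °C; growth inhibition read photometrically 4-5 days after application.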

[6] = tested on: Mycosphaerella graminicola (Septoria tritici); test: Mycosphaerella graminicola (Septoria tritici) / liquid culture (Septoria blotch); assay type: cell-based; settings: Zymoseptoria tritici, PDB, 24° C., 4-5 days after application, read-out: control of Mycosphaerella graminicola (inhibition of growth, photometric)
Method in brief: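 Growth inhibition was read photometrically after 4–5 days at 24 °C. The test compound was applied at 200 ppm from DMSO solution, then PDB broth seeded with conidia taken straight from cryogenic storage was added.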

Gaeumannomyces graminis = Gaeumannomyces graminis / liquid culture (take-all of cereals); assay type: cell-based; settings: PDB, 24° C., 4-5 days after application, read-out: control of Gaeumannomyces graminis (inhibition of growth, photometric)
Method in brief: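 Growth inhibition, measured by photometry 4-5 days post-application at 24 °C, of fungal mycelial fragments in PDB broth. Test compound applied as DMSO solution at 200 ppm.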

[7] = tested on: Thanatephorus cucumeris (Rhizoctonia solani); test: Thanatephorus cucumeris (Rhizoctonia solani) / liquid culture (foot rot, damping-off); assay type: cell-based; settings: PDB, 24° C., 3-4 days after application, read-out: control of Thanatephorus cucumeris (inhibition of growth, photometric)
Method in brief: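 At 200 ppm, compounds in DMSO were combined with fresh liquid-culture mycelia in PDB and kept at 24° C; photometric measurement of growth inhibition after 3-4 days.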

[8] = tested on: Monographella nivalis (Microdochium nivale); test: Monographella nivalis (Microdochium nivale) / liquid culture (foot rot cereals); assay type: cell-based; settings: PDB, 24° C., 4-5 days after application, read-out: control of Monographella nivalis (inhibition of growth, photometric)
Method in brief: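 Cryostored conidia in potato dextrose broth were added to test compound dispensed from DMSO at 200 ppm. Plates were kept at 24° C, and growth inhibition was read photometrically 4-5 days after application.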

Pythium ultimum = Pythium ultimum / liquid culture (seedling damping off); assay type: cell-based; settings: Globisporangium ultimum, potato dextrose broth, 24° C., 2-3 days after application, read-out: control of Pythium ultimum (inhibition of growth, photometric)
Method: Pythium ultimum/Liquid Culture (Seedling Damping Off) Mycelia fragments and oospores of a newly grown liquid culture of the fungus were directly mixed into nutrient broth (potato dextrose broth). After placing a DMSO solution of test compound into a 96-well format microtiter plate at an application rate of 200 ppm, the nutrient broth containing the fungal mycelia/spore mixture was added. The test plates were incubated at 24° C. and the inhibition of growth was determined photometrically 2-3 days after application.

Sclerotinia sclerotiorum = Sclerotinia sclerotiorum liquid culture (cottony rot / white mold); assay type: cell-based; settings: PDB, 24° C., 3-4 days after application, read-out: control of Sclerotinia sclerotiorum (inhibition of growth, photometric)
Method in brief: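 Mycelia fragments of Sclerotinia sclerotiorum in potato dextrose broth were added to compound in DMSO. Cultures incubated at 24° C; growth inhibition determined photometrically 3-4 days after application.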

Plasmopara viticola = Plasmopara viticola / grape / leaf disc preventative; assay type: in vivo; settings: foliar, grape vine leaf disks, inoculated 1 day after application, assessed 6-8 days after application, read-out: control of Plasmopara viticola (percent disease control compared to untreated)

`CCn1c(-n2ncnc2N)nc2cncc(-c3ccoc3)c21` [Compound 55, 2-[1-ethyl-7-(furan-3-yl)imidazo[4,5-c]pyridin-2-yl]-1,2,4-triazol-3-amine] showed a pest or weed control at 200 ppm [1] of no less than 80%, a pest or weed control at 200 ppm [2] of no less than 80% and a pest or weed control at 200 ppm (Pyrenophora teres) of no less than 80%. For the same compound, the inhibition at 20 ppm [3] was no less than 80%, the inhibition at 20 ppm [4] was no less than 80% and the inhibition at 20 ppm [5] was no less than 80%. For the same compound, the inhibition at 20 ppm [6] was no less than 80%, the inhibition at 20 ppm (Gaeumannomyces graminis) was no less than 80% and the inhibition at 20 ppm [7] was no less than 80%. It also gave an inhibition at 20 ppm [8] of no less than 80% and an inhibition at 20 ppm (Pythium ultimum) of no less than 80%.

For `CCn1c(-n2ncnc2N)nc2cncc(-c3ccc(Cl)cc3Cl)c21` [Compound 38, 2-[7-(2,4-dichlorophenyl)-1-ethylimidazo[4,5-c]pyridin-2-yl]-1,2,4-triazol-3-amine], the pest or weed control at 200 ppm [1] was no less than 80%, the pest or weed control at 200 ppm [2] was no less than 80% and the pest or weed control at 200 ppm (Pyrenophora teres) was no less than 80%. It also gave an inhibition at 20 ppm [3] of no less than 80%, an inhibition at 20 ppm [4] of no less than 80% and an inhibition at 20 ppm [5] of no less than 80%. For the same compound, the inhibition at 20 ppm [6] was no less than 80%, the inhibition at 20 ppm (Gaeumannomyces graminis) was no less than 80% and the inhibition at 20 ppm [7] was no less than 80%. It also gave an inhibition at 20 ppm [8] of no less than 80%, an inhibition at 20 ppm (Pythium ultimum) of no less than 80% and an inhibition at 20 ppm (Sclerotinia sclerotiorum) of no less than 80%.

With `CCn1c(-n2ncnc2N)nc2cncc(-c3ccccc3Cl)c21` [Compound 33, 2-[7-(2-chlorophenyl)-1-ethylimidazo[4,5-c]pyridin-2-yl]-1,2,4-triazol-3-amine] the pest or weed control at 200 ppm [1] was no less than 80%, the pest or weed control at 200 ppm [2] was no less than 80% and the pest or weed control at 200 ppm (Pyrenophora teres) was no less than 80%. It also gave an inhibition at 20 ppm [3] of no less than 80%, an inhibition at 20 ppm [4] of no less than 80% and an inhibition at 20 ppm [5] of no less than 80%. The inhibition at 20 ppm [6] was no less than 80%, the inhibition at 20 ppm [7] was no less than 80% and the inhibition at 20 ppm [8] was no less than 80%. The inhibition at 20 ppm (Pythium ultimum) was no less than 80% and the inhibition at 20 ppm (Sclerotinia sclerotiorum) was no less than 80%.

Work on `CCCCc1nc(N)n(-c2nc3cnccc3n2C2CCCCC2)n1` [Compound 6, 5-butyl-2-(1-cyclohexylimidazo[4,5-c]pyridin-2-yl)-1,2,4-triazol-3-amine] yielded an inhibition at 20 ppm [4] of no less than 80%, an inhibition at 20 ppm (Pythium ultimum) of no less than 80% and a melting point of 163 to 165 °C.

Work on `CCn1c(-n2ncnc2N)nc2cncc(-c3cc(F)ccc3F)c21` [Compound 39, 2-[7-(2,5-difluorophenyl)-1-ethylimidazo[4,5-c]pyridin-2-yl]-1,2,4-triazol-3-amine] yielded a pest or weed control at 200 ppm [2] of no less than 80%, a pest or weed control at 200 ppm (Pyrenophora teres) of no less than 80% and an inhibition at 20 ppm [3] of no less than 80%. For the same compound, the inhibition at 20 ppm [4] was no less than 80%, the inhibition at 20 ppm [5] was no less than 80% and the inhibition at 20 ppm [6] was no less than 80%. It also gave an inhibition at 20 ppm (Gaeumannomyces graminis) of no less than 80%, an inhibition at 20 ppm [7] of no less than 80% and an inhibition at 20 ppm [8] of no less than 80%. The inhibition at 20 ppm (Pythium ultimum) was no less than 80% and the inhibition at 20 ppm (Sclerotinia sclerotiorum) was no less than 80%.

In the case of `CCn1c(-n2ncnc2N)nc2cncc(-c3ccccc3)c21` [Compound 19, 2-(1-ethyl-7-phenylimidazo[4,5-c]pyridin-2-yl)-1,2,4-triazol-3-amine], the pest or weed control at 200 ppm (Plasmopara viticola) is reported as no less than 80%, the pest or weed control at 200 ppm [1] is reported as no less than 80% and the pest or weed control at 200 ppm [2] is reported as no less than 80%. The pest or weed control at 200 ppm (Pyrenophora teres) was no less than 80%, the inhibition at 20 ppm [3] was no less than 80% and the inhibition at 20 ppm [4] was no less than 80%. The inhibition at 20 ppm [6] was no less than 80%, the inhibition at 20 ppm (Gaeumannomyces graminis) was no less than 80% and the inhibition at 20 ppm [7] was no less than 80%. The inhibition at 20 ppm [8] was no less than 80%, the inhibition at 20 ppm (Pythium ultimum) was no less than 80% and the melting point was 247 to 251 °C.

For `CCn1c(-n2ncnc2N)nc2cncc(C)c21` [Compound 22, 2-(1-ethyl-7-methylimidazo[4,5-c]pyridin-2-yl)-1,2,4-triazol-3-amine], the pest or weed control at 200 ppm [1] was no less than 80%, the pest or weed control at 200 ppm [2] was no less than 80% and the pest or weed control at 200 ppm (Pyrenophora teres) was no less than 80%. The inhibition at 20 ppm [3] was no less than 80%, the inhibition at 20 ppm [4] was no less than 80% and the inhibition at 20 ppm [5] was no less than 80%. For the same compound, the inhibition at 20 ppm [6] was no less than 80%, the inhibition at 20 ppm (Gaeumannomyces graminis) was no less than 80% and the inhibition at 20 ppm [7] was no less than 80%. It also gave an inhibition at 20 ppm [8] of no less than 80%, an inhibition at 20 ppm (Pythium ultimum) of no less than 80% and an inhibition at 20 ppm (Sclerotinia sclerotiorum) of no less than 80%. The melting point was 194 to 198 °C.

In the case of `CCCn1c(-n2ncnc2N)nc2cncc(-c3ccccc3Cl)c21` [Compound 172, 2-[7-(2-chlorophenyl)-1-propyl-imidazo[4,5-c]pyridin-2-yl]-1,2,4-triazol-3-amine], the pest or weed control at 200 ppm (Plasmopara viticola) is reported as no less than 80%, the pest or weed control at 200 ppm [1] is reported as no less than 80% and the pest or weed control at 200 ppm [2] is reported as no less than 80%. It also gave a pest or weed control at 200 ppm (Pyrenophora teres) of no less than 80%, an inhibition at 20 ppm [3] of no less than 80% and an inhibition at 20 ppm [4] of no less than 80%. For the same compound, the inhibition at 20 ppm [6] was no less than 80%, the inhibition at 20 ppm (Gaeumannomyces graminis) was no less than 80% and the inhibition at 20 ppm [7] was no less than 80%. For the same compound, the inhibition at 20 ppm [8] was no less than 80%, the inhibition at 20 ppm (Pythium ultimum) was no less than 80% and the inhibition at 20 ppm (Sclerotinia sclerotiorum) was no less than 80%.

`CCCc1cncc2nc(-n3ncnc3N)n(CC)c12` [Compound 73, 2-(1-ethyl-7-propylimidazo[4,5-c]pyridin-2-yl)-1,2,4-triazol-3-amine] showed a pest or weed control at 200 ppm [1] of no less than 80%, a pest or weed control at 200 ppm [2] of no less than 80% and a pest or weed control at 200 ppm (Pyrenophora teres) of no less than 80%. For the same compound, the inhibition at 20 ppm [3] was no less than 80%, the inhibition at 20 ppm [5] was no less than 80% and the inhibition at 20 ppm [6] was no less than 80%. The inhibition at 20 ppm (Gaeumannomyces graminis) was no less than 80%, the inhibition at 20 ppm [7] was no less than 80% and the inhibition at 20 ppm [8] was no less than 80%. It also gave an inhibition at 20 ppm (Pythium ultimum) of no less than 80% and an inhibition at 20 ppm (Sclerotinia sclerotiorum) of no less than 80%.

`CCn1c(-n2ncnc2N)nc2cncc(-c3ccc(F)cc3F)c21` [Compound 80, 2-[7-(2,4-difluorophenyl)-1-ethylimidazo[4,5-c]pyridin-2-yl]-1,2,4-triazol-3-amine] gave a pest or weed control at 200 ppm [1] of no less than 80%, a pest or weed control at 200 ppm [2] of no less than 80% and a pest or weed control at 200 ppm (Pyrenophora teres) of no less than 80%. The inhibition at 20 ppm [3] was no less than 80%, the inhibition at 20 ppm [4] was no less than 80% and the inhibition at 20 ppm [5] was no less than 80%. It also gave an inhibition at 20 ppm [6] of no less than 80%, an inhibition at 20 ppm (Gaeumannomyces graminis) of no less than 80% and an inhibition at 20 ppm [7] of no less than 80%. For the same compound, the inhibition at 20 ppm [8] was no less than 80%, the inhibition at 20 ppm (Pythium ultimum) was no less than 80% and the inhibition at 20 ppm (Sclerotinia sclerotiorum) was no less than 80%.
